Laboratory results: patent publication US11020457B2, “Compositions and methods for protecting the kidney from ischemia reperfusion injury” (University of Virginia Patent Foundation, priority 2013, dated 2021)
Entries after “also recorded” stand apart in the source; their conditions may differ.

Assays:
[1] = tested on: C57BL/6 mice; experiment: Renal IRI in WT mice: plasma creatinine, H&E histology, NGAL; assay type: in vivo
Description: (§1) All experiments were performed in accordance with the National Institutes of Health and Institutional Animal Care and Use Guidelines. The Animal Care and Use Committee of the University of Virginia approved all procedures and protocols. C57BL/6 mice from the Jackson Laboratory and hepcidin knockout mice (HAMP−/−), a kind gift from Dr Cindy Roy (John Hopkins University) were used in this study. All experiments were performed on 8-10 weeks old male mice. Kidney ischemia-reperfusion surgery was performed as previously reported (44). The core temperature of the mice was maintained between 34° C. and 36° C. using a heating pad. After anesthetizing the mice (ketamine, 12 mg/ml; atropine, 0.48 mg/ml; xylazine, 24 mg/ml; […] mixture administered per 20 g body weight), bilateral flank incisions were made, both renal pedicles were exposed, and cross-clamped for 26 minutes (severe I/R injury) or 24 minutes (mild I/R injury). After the determined ischemia, clamps were removed, and kidneys were allowed to reperfuse for 24 hours. Ambient postoperative air temperature was maintained between 30° C. and 32° C. until mice had fully recovered. Sham-operated animals underwent bilateral flank incisions without clamping of renal pedicles. Twenty-four hours later, mice were euthanized, and tissues were harvested.
(§2) Animals were divided into three groups, injected intraperitoneally with water and underwent IRI (IRI), injected intraperitoneally with 50-100 μg hepcidin at different time points prior to IRI (Hepcidin-IRI) or were sham operated (Sham). The experimental design is depicted in FIG. 2a.
Renal function was determined by measurement of plasma creatinine, determined using a modified Jaffe colorimetric assay (44).
Kidneys were fixed in buffered formalin for 48 h, embedded in paraffin, sectioned (3-μm thickness), and stained with hematoxylin and eosin (H&E). The extent of acute tubular necrosis (ATN) following IRI was assessed using H&E stained kidney sections. An investigator blinded to the sample identities was used for these analyses to have an unbiased approach.
(§3) For RNA isolation, frozen tissues were re-suspended in RLT buffer (Qiagen Inc, Valencia, Calif.) and homogenized using TissueLyser system (Qiagen Inc, Valencia, Calif.). Total RNA from tissue homogenate was purified using RNAeasy mini kit (Qiagen Inc, Valencia, Calif.) following manufacturers instructions. 1 μg of RNA was used to synthesize cDNA using the iScript cDNA synthesis kit (Bio-Rad). The cDNA template was mixed with iTAQ SYBR green universal super mix (Bio-Rad) and quantitative PCR was carried out on CFX Connect system (Bio-Rad). Predesigned primers for Caspase-3 and Bcl-2 were purchased from Bio-rad. Glyceraldehyde-3-phosphate dehydrogenase (GAPDH) was amplified in parallel and used as the reference gene in quantification. Data is expressed as the relative gene expression and was calculated using the 2 (−ρρC(T)) method.

[2] = tested on: splenocytes from WT mice; experiment: Iron stimulation of splenocytes, IL-6 secretion by ELISA; assay type: cell-based; conditions: 1 μg/mL hepcidin for 4 hours, vs untreated splenocytes; FIG. 10c
Description: Splenocytes were harvested from 10-week-old B6 male mice. After excising the spleen, red blood cells were lysed and the remaining splenocytes were seeded at 1×10^6 cells/mL in 24-well tissue culture plates and cultured under 5% CO2 at 37° C. for 24 hours. The culture medium consisted of RPMI 1640 medium supplemented with 10% fetal calf serum (FCS), 100 U/mL penicillin, 100 μg/mL streptomycin, 1% non-essential amino acids (Gibco/Life Technologies, Foster, Calif., USA), 2 mM L-glutamine (Sigma), and 50/μM 2-mercaptoethanol. After resting for 24 hours, the cells were treated with 10 μM […] (FAC), 1 μg/mL hepcidin or saline for 4 hours. The cell culture supernatants were harvested and quantified for the levels of IL-6 by ELISA (eBioscience).

[3] = tested on: C57BL/6 mice; experiment: Renal IRI in WT mice: serum iron (ELISA), tissue non-heme iron, liver and serum hepcidin; assay type: in vivo
Description: as §1, §2
Serum iron (Abcam), hepcidin (Intrinsic Lifescience) and IL-6 levels (eBioscience) were measured using commercial ELISA kits, as per manufacturers instructions.
Non-heme iron content in tissue was measured using the method described in published literature with slight modifications (60). Briefly, tissues were accurately weighed, finely cut and placed for 20 hours at 65° C. in a solution of 3M HCl/0.61 M trichloroacetic acid. After cooling to room temperature, the acid extract was spun at 12,000 rpm to collect the supernatant. 0.1 mL of the supernatant was incubated with chromogen solution (1.86 mM bathophenanthroline sulfonate/143 mM thioglycollic acid) for 20 minutes, and OD was measured at 535 nm. A standard curve was generated using an iron standard solution (Ricca Iron AA standard) against water as the blank. Non-heme iron content (μg/g) was calculated using the equation described (60).
as §3

[4] = Proteinuria (data not shown); assay type: in vivo
[5] = tested on: C57BL/6 mice; experiment: Renal IRI in WT mice: Western blot of kidney ferroportin and H-Ferritin; assay type: in vivo; conditions: for kidney ferroportin expression (membrane fraction): pretreatment with hepcidin, p<0.01, FIG. 5a-b
Description: as §1, with “harvested. […]” for “harvested.”
Snap frozen tissue sections were homogenized in Tris-Triton tissue lysis buffer containing complete protease inhibitor cocktail using a Dounce Homogenizer. […] H-Ferritin was measured in the whole kidney and spleen lysates. […] The primary antibodies were detected with Donkey anti-goat Alexa 800 and goat anti-rabbit Alexa 800 antibodies (LiCor Bioscience). Mouse monoclonal GAPDH and β-Actin (Abcam) were used as the loading controls and detected using Donkey anti Mouse Alexa 680 antibody (LiCor Bioscience). Quantitation of data was performed using densitometry software (Licor Bioscience).

Mouse hepcidin 25 (DTNFPICIFCCKCCNNSQCGICCKT; listed as Mus musculus)
plasma creatinine, comparison of doses ([1]; 50 versus 100 μg hepcidin, 24 hours before IRI): no significant differences in plasma creatinine | kidney NGAL expression ([1]; IRI Vs Hepcidin-IRI, p<0.001): significantly lower expression of NGAL | renal architecture / tubular necrosis (H&E) ([1]; hepcidin 50 μg 24 hours before IRI, FIG. 2e): fewer necrotic tubules and luminal debris | plasma creatinine ([1]; hepcidin 50 μg injected 2 hours prior to IRI, p<0.001 vs untreated IRI): significantly reduced plasma creatinine levels | plasma creatinine ([1]; hepcidin 50 μg injected 8 hours prior to IRI, p<0.001 vs untreated IRI): significantly reduced plasma creatinine levels | plasma creatinine ([1]; single bolus of 50 or 100 μg hepcidin intraperitoneally, 24 hours before IRI, measured 24 hours after IRI, p<0.0001): significantly lowered plasma creatinine levels; also recorded: maximum protection | IL-6 secretion into supernatants [2]: no significant difference in IL-6 levels | liver hepcidin gene expression ([3]; hepcidin before IRI, IRI Vs. Hepcidin-IRI p<0.005, FIG. 1e): significantly prevented the IRI-induced upregulation of hepcidin | liver non-heme iron levels ([3]; hepcidin before IRI, vs IRI p<0.0001): effectively prevented IRI-induced depletion of liver non-heme iron | splenic non-heme iron content ([3]; hepcidin before IRI, vs IRI p<0.001, vs sham p<0.05): significantly higher splenic non-heme iron content than IRI or sham groups | kidney non-heme iron content ([3]; hepcidin before IRI, vs IRI, p<0.05, FIG. 1b): significantly prevented IRI-induced kidney iron accumulation | serum iron levels ([3]; hepcidin i.p. before IRI, vs untreated IRI, p<0.001, FIG. 1a): significantly reduced IRI-induced increase in serum iron levels | serum hepcidin levels ([3]; hepcidin-treated IRI vs sham, FIG. 1f): not significantly different between hepcidin-treated and sham groups | proteinuria [4]: reducing proteinuria | kidney H-Ferritin expression ([5]; hepcidin-IRI Vs IRI p<0.005, Vs Sham p<0.05, FIG. 5c-d): significantly higher H-Ferritin expression compared to both untreated IRI mice and sham mice; also recorded: prevented | kidney ferroportin expression (membrane fraction) [5]: prevented the IRI induced upregulation | kidney ferroportin expression (membrane fraction) ([5]; listed as hepcidin): levels comparable to sham mice
